Data as given in patent publication US12590062B2, “PD-1/PD-L1 inhibitors” (Gilead Sciences, Inc., priority 2017, dated 2026).

How the values were obtained:
PD-1/PD-L1 interaction = biological target: T1, PD-1/PD-L1 interaction (Homo sapiens, UniProt Q9NZQ7); experiment: PD-1/PD-L1 NFAT reporter co-culture assay; type: cell-based; settings: Jurkat PD-1 NFAT-luciferase cells co-cultured with aAPC-PD-L1 CHO cells, 6 hrs at 37° C.; read-out: EC50 NFAT Luciferase
T1 construct: expressed in transfected cells; host or cells: CHO cells (aAPC-PD-L1) co-cultured with Jurkat cells overexpressing PD-1 and an NFAT-luciferase reporter
Summary of the method: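 Compounds are scored by restoration of NFAT-luciferase signal in PD-1-expressing Jurkat cells cultured 6 h at 37 °C on CHO cells presenting anti-CD3 and PD-L1; EC50 values derive from four-parameter curve fitting.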

[1] = biological target: T2, interaction between the recombinant extracellular domain (ECD) of PD-1 and native cell-bound PD-L1 (Homo sapiens, UniProt Q9NZQ7); experiment: CHO/PD-L1 cell capture assay; type: cell-based; settings: CHO cells overexpressing PD-L1, pre-incubated 1 hr with compound, captured on biotinylated Fc-PD-1 coated plates, 75 min at room temperature
T2 construct: expressed in transfected cells
Description: EC50-CHO/PD-L1-Capture Assay:
Compounds were tested in a cell capture assay to determine if they can specifically block the interaction between the recombinant extracellular domain (ECD) of PD-1 and native cell-bound PD-L1. Binding affinity of stable CHO cells overexpressing PD-L1 with its cognate recombinant ligand coated on plates was measured by counting the number of ‘captured’ cells. High-capacity streptavidin- coated plates were incubated with biotylated-Fc-PD-1 for 2 hours in PBS. Unbound ligand was washed out. CHO-PD-L1 cells (resuspended in PBS pH 7.4, 0.5 mM EDTA, and 2% bovine serum albumin) were pre-incubated for 1 hr with compound, dispensed into each PD-1 ECD coated well and then incubated for 75 min at room temperature. To stop the capture assay, a fixative/staining solution (final concentrations are 1.3% glutaraldehyde and 1.67 μM Draq5) was gently added to the cells and incubated for 2 hrs at room temperature. Unbound cells were then washed out and ‘captured’ cells were enumerated using a high-content microscopy system. EC50 values were calculated from the fit of the dose-response curves to a four-parameter equation. Representative data are shown below in Table 2.

PD-1/PD-L1 = PD-1/PD-L1 (Homo sapiens, UniProt Q9NZQ7); experiment: PD-1/PD-L1 biochemical protein-protein interaction assay (ALPHA); type: binding; settings: 0.3 nM His tagged PD-L1, 2.5 nM biotinylated Fc-PD-1, 60 minutes at 25° C., read-out: IC50 PD-L1-PD-1 Alpha IC50-mono PD-L1-fcP-D1
Summary of the method: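 Final concentrations 0.3 nM His-tagged PD-L1 and 2.5 nM biotinylated Fc-PD-1 (extracellular domains) were reacted with compound for 60 min at 25° C in pH 7.4 Hepes/NaCl/EDTA/Tween/BSA buffer. Binding was then detected by ALPHA beads, and IC50 values were taken from four-parameter curve fitting.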

T1 sequence (Q9NZQ7 19-290): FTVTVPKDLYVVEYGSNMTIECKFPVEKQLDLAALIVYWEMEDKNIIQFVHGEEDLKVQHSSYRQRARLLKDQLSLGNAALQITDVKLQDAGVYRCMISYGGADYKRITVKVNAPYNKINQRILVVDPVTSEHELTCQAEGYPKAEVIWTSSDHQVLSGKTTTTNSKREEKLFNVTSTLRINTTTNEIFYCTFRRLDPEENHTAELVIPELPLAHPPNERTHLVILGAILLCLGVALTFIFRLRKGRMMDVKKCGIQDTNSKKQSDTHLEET
T2 sequence (Q9NZQ7 19-290): as above
Chain of PD-1/PD-L1 (Q9NZQ7 19-238 limits assumed): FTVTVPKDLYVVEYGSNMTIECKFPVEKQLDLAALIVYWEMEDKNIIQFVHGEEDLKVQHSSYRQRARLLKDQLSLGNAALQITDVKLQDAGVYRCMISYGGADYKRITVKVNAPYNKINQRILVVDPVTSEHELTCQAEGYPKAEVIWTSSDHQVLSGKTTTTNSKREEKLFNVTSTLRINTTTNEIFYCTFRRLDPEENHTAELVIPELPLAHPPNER

COc1nc(O[C@H]2CCc3c(-c4cccc5c4CC[C@@H]5Oc4nc(OC)c(CN[C@@](C)(CO)C(=O)O)cc4Br)cccc32)c(Br)cc1CN[C@@](C)(CO)C(=O)O [Example 5, (2S,2′S)-2,2′-((((((1S,1′S)-2,2′,3,3′-tetrahydro-1H,1′H-[4,4′-biindene]-1,1′-diyl)bis(oxy))bis(5-bromo-2-methoxypyridine-6,3-diyl))bis(methylene))bis(azanediyl))bis(3-hydroxy-2-methylpropanoic acid)]
EC50 (PD-1/PD-L1 interaction): 29 nM
EC50 [1]: 38.1 nM
IC50 (PD-1/PD-L1): 0.1 nM

COc1nc(OC2CCc3c(-c4cccc5c4CCC5Oc4nc(OC)c(CNC[C@@H](O)CC(=O)O)cc4Cl)cccc32)c(Cl)cc1CNC[C@@H](O)CC(=O)O (stereo partly drawn) [Example 9, (3S,3′S)-4,4′-(((((2,2′,3,3′-tetrahydro-1H,1′H-[4,4′-biindene]-1,1′-diyl)bis(oxy))bis(5-chloro-2-methoxypyridine-6,3-diyl))bis(methylene))bis(azanediyl))bis(3-hydroxybutanoic acid)]
EC50 (PD-1/PD-L1 interaction): 340 nM
EC50 [1]: 102 nM
IC50 (PD-1/PD-L1): 0.5 nM

COc1nc(O[C@H]2CCc3c(-c4cccc5c4CC[C@@H]5Oc4ccc(CNC[C@@H](O)CC(=O)O)c(OC)n4)cccc32)ccc1CNC[C@@H](O)CC(=O)O [Example 11, (3S,3′S)-4,4′-((((((1S,1′S)-2,2′,3,3′-tetrahydro-1H,1′H-[4,4′-biindene]-1,1′-diyl)bis(oxy))bis(2-methoxypyridine-6,3-diyl))bis(methylene))bis(azanediyl))bis(3-hydroxybutanoic acid)]
EC50 (PD-1/PD-L1 interaction): 1100 nM
EC50 [1]: 170 nM
IC50 (PD-1/PD-L1): 0.4 nM

COc1nc(OC2CCc3c(-c4cccc5c4CCC5Oc4ccc(CNC[C@@H](O)CC(=O)O)c(OC)n4)cccc32)ccc1CNC[C@@H](O)CC(=O)O (stereo partly drawn) [Example 13, (3S,3′S)-4,4′-(((((2,2′,3,3′-tetrahydro-1H,1′H-[4,4′-biindene]-1,1′-diyl)bis(oxy))bis(2-methoxypyridine-6,3-diyl))bis(methylene))bis(azanediyl))bis(3-hydroxybutanoic acid)]
EC50 (PD-1/PD-L1 interaction): 4800 nM
EC50 [1]: 457 nM
IC50 (PD-1/PD-L1): 2.2 nM

Cc1c(COc2cc(OCc3cncc(C#N)c3)c(CNCCO)cc2Cl)cccc1-c1cccc(COc2cc(OCc3cncc(C#N)c3)c(CNCCO)cc2Cl)c1 [Example 20, 5,5′-((((((2-methyl-[1,1′-biphenyl]-3,3′-diyl)bis(methylene))bis(oxy))bis(4-chloro-6-(((2-hydroxyethyl)amino)methyl)-3,1-phenylene))bis(oxy))bis(methylene))dinicotinonitrile]
EC50 (PD-1/PD-L1 interaction): 1200 nM
EC50 [1]: 752 nM
IC50 (PD-1/PD-L1): 12.6 nM

COc1nc(OCc2cccc(-c3cccc(COc4nc(OC)c(CNC[C@@H](O)CC(=O)O)cc4Cl)c3C)c2C)c(Cl)cc1CNC[C@@H](O)CC(=O)O [Example 29, (3S,3′S)-4,4′-((((((2,2′-dimethyl-[1,1′-biphenyl]-3,3′-diyl)bis(methylene))bis(oxy))bis(5-chloro-2-methoxypyridine-6,3-diyl))bis(methylene))bis(azanediyl))bis(3-hydroxybutanoic acid)]
EC50 (PD-1/PD-L1 interaction): 244 nM
EC50 [1]: 218 nM
IC50 (PD-1/PD-L1): 0.8 nM

Cc1c(COc2nc(OCc3cncc(C#N)c3)c(CNC[C@H](O)CC(=O)O)cc2Cl)cccc1-c1cccc(COc2nc(OCc3cncc(C#N)c3)c(CNC[C@H](O)CC(=O)O)cc2Cl)c1C [Example 32, (3R,3′R)-4,4′-((((((2,2′-dimethyl-[1,1′-biphenyl]-3,3′-diyl)bis(methylene))bis(oxy))bis(5-chloro-2-((5-cyanopyridin-3-yl)methoxy)pyridine-6,3-diyl))bis(methylene))bis(azanediyl))bis(3-hydroxybutanoic acid)]
EC50 (PD-1/PD-L1 interaction): 127 nM
EC50 [1]: 42.1 nM
IC50 (PD-1/PD-L1): 0.3 nM

Cc1c(COc2nc(OCc3cncc(C#N)c3)c(CNC[C@@H](O)CC(=O)O)cc2Cl)cccc1-c1cccc(COc2nc(OCc3cncc(C#N)c3)c(CNC[C@@H](O)CC(=O)O)cc2Cl)c1C [Example 34, (3S,3′S)-4,4′-((((((2,2′-dimethyl-[1,1′-biphenyl]-3,3′-diyl)bis(methylene))bis(oxy))bis(5-chloro-2-((5-cyanopyridin-3-yl)methoxy)pyridine-6,3-diyl))bis(methylene))bis(azanediyl))bis(3-hydroxybutanoic acid)]
EC50 (PD-1/PD-L1 interaction): 195 nM
EC50 [1]: 321 nM
IC50 (PD-1/PD-L1): 0.4 nM

Cc1c(COc2nc(OCc3cncc(C#N)c3)c(CNCCO)cc2Cl)cccc1-c1cccc(COc2nc(OCc3cncc(C#N)c3)c(CNCCO)cc2Cl)c1C [Example 35, 5,5′-((((((2,2′-dimethyl-[1,1′-biphenyl]-3,3′-diyl)bis(methylene))bis(oxy))bis(5-chloro-3-(((2-hydroxyethyl)amino)methyl)pyridine-6,2-diyl))bis(oxy))bis(methylene))dinicotinonitrile]
EC50 (PD-1/PD-L1 interaction): 296 nM
EC50 [1]: 264 nM
IC50 (PD-1/PD-L1): 15.6 nM

CCCc1cc(CNCCO)c(OCc2cncc(C#N)c2)cc1OCc1cccc(-c2cccc(COc3cc(OCc4cncc(C#N)c4)c(CNCCO)cc3CCC)c2C)c1C [Example 39, 5,5′-((((((2,2′-dimethyl-[1,1′-biphenyl]-3,3′-diyl)bis(methylene))bis(oxy))bis(6-(((2-hydroxyethyl)amino)methyl)-4-propyl-3,1-phenylene))bis(oxy))bis(methylene))dinicotinonitrile]
EC50 (PD-1/PD-L1 interaction): ≥ 50000 nM
EC50 [1]: 267 nM
IC50 (PD-1/PD-L1): 167 nM

Cc1c(COc2nc(OCc3cncc(S(C)(=O)=O)c3)c(CN[C@@](C)(CO)C(=O)O)cc2Br)cccc1-c1cccc(COc2nc(OCc3cncc(S(C)(=O)=O)c3)c(CN[C@@](C)(CO)C(=O)O)cc2Br)c1C [Example 41, (2S,2′S)-2,2′-((((((2,2′-dimethyl-[1,1′-biphenyl]-3,3′-diyl)bis(methylene))bis(oxy))bis(5-bromo-2-((5-(methylsulfonyl)pyridin-3-yl)methoxy)pyridine-6,3-diyl))bis(methylene))bis(azanediyl))bis(3-hydroxy-2-methylpropanoic acid)]
EC50 (PD-1/PD-L1 interaction): 188 nM
EC50 [1]: 248 nM
IC50 (PD-1/PD-L1): 0.2 nM

COc1cc(OCc2cccc(-c3cccc(COc4cc(OCc5cncc(C#N)c5)c(CNC[C@H](O)C(=O)O)cc4Cl)c3C)c2C)c(Cl)cc1CNC[C@H](O)C(=O)O [Example 216, (S)-3-((4-((3′-((4-((((S)-2-carboxy-2-hydroxyethyl)amino)methyl)-2-chloro-5-((5-cyanopyridin-3-yl)methoxy)phenoxy)methyl)-2,2′-dimethyl-[1,1′-biphenyl]-3-yl)methoxy)-5-chloro-2-methoxybenzyl)amino)-2-hydroxypropanoic acid]
EC50 (PD-1/PD-L1 interaction): 514 nM
EC50 [1]: 206 nM

COc1cc(OCc2cccc(-c3cccc(COc4cc(OCc5cncc(C#N)c5)c(CNCC(=O)O)cc4Cl)c3C)c2C)c(Cl)cc1CNCC(=O)O [Example 217, (4-((3′-((4-(((carboxymethyl)amino)methyl)-2-chloro-5-((5-cyanopyridin-3-yl)methoxy)phenoxy)methyl)-2,2′-dimethyl-[1,1′-biphenyl]-3-yl)methoxy)-5-chloro-2-methoxybenzyl)glycine]
EC50 (PD-1/PD-L1 interaction): 589 nM
EC50 [1]: 71.6 nM

COc1nc(OCc2cccc(-c3cccc(COc4nc(OC)c(CNC5(C#N)CCC5)cc4Cl)c3C)c2C)c(Cl)cc1CNC1(C#N)CCC1 [Example 231, 1,1′-((((((2,2′-dimethyl-[1,1′-biphenyl]-3,3′-diyl)bis(methylene))bis(oxy))bis(5-chloro-2-methoxypyridine-6,3-diyl))bis(methylene))bis(azanediyl))bis(cyclobutane-1-carbonitrile)]
EC50 (PD-1/PD-L1 interaction): 962 nM
EC50 [1]: 277 nM

COc1nc(OCc2cccc(-c3cccc(COc4nc(OC)c(CN5CCC[C@@H]5C(=O)O)cc4Cl)c3C)c2C)c(Cl)cc1CN1CCC[C@@H]1C(=O)O [Example 234, (2′R)-(((((2,2′-dimethyl-[1,1′-biphenyl]-3,3′-diyl)bis(methylene))bis(oxy))bis(5-chloro-2-methoxypyridine-6,3-diyl))bis(methylene))di-D-proline]
EC50 (PD-1/PD-L1 interaction): 444 nM
EC50 [1]: 132 nM

Cc1c(COc2cc(OCc3cncc(C#N)c3)c(CNC[C@@H](O)CC(=O)O)cc2Cl)cccc1-c1cccc(-c2ccc(OCCNC[C@@H](O)CC(=O)O)c(Cl)c2)c1C [Example 288, (S)-4-((4-((4″-(2-(((S)-3-carboxy-2-hydroxypropyl)amino)ethoxy)-3″-chloro-2,2′-dimethyl-[1,1′:3′,1″-terphenyl]-3-yl)methoxy)-5-chloro-2-((5-cyanopyridin-3-yl)methoxy)benzyl)amino)-3-hydroxybutanoic acid]
EC50 (PD-1/PD-L1 interaction): 57 nM
EC50 [1]: 10.3 nM
